Test results reported in patent US8080529B2, “Macrolides with anti-inflammatory activity” (Glaxo Group Limited, priority 2005, dated 2011).
Like-named read-outs stand apart in the source and are kept apart here.

Tests used:
Assay type in all cases: cell-based
A549 = test: Cytotoxicity assay (MTT), A549 cell line; settings: 24 h
Procedure: (§1) To determine whether the anti-inflammatory activity of the test compounds was due to observed inhibition of cytokine production and inhibition of proliferation in vitro, and was not a consequence of cellular cytotoxicity, measurement of succinate dehydrogenase activity in living cells was performed. Cells were cultured for 24 h in RPM medium as described above at 37° C. the presence of the test compounds at concentrations of 50 μM and 12.5 μM. MTT [3-(4,5-dimethylthiazole-2-yl)-2,5-diphenyl tetrazolium bromide] (Promega, USA), a detection reagent, was then added and the cultures were incubated for 0.5-2 h. The amount of MTT-Formazan produced was determined using a spectrophotometer at 490 nm (Mosmann, J. Immunol. Methods, 1983, 65: 55-63).
(§2) The percentage of inhibition of cell growth was calculated using the following formula: % inhibition of cell growth=[…].

IL-6 = test: Inhibition of IL-6 production by stimulated human peripheral blood leukocytes in vitro; settings: Homo sapiens, Leukocyte, read-out: Percentage of inhibition of IL-6 production
Procedure: (§3) Test substances used in in vitro experiments were dissolved in dimethyl sulfoxide (DMSO) (Kemika, Croatia) at concentrations of 50 mM and 10 mM, and were further diluted to final concentrations of 50 μM and 10 μM in 1 mL Dulbecco's modified Eagle medium (DMEM) supplemented with 1% heat inactivated fetal bovine serum (FBS), 1% L-glutamine, 50 U/ml penicillin, 50 μg/ml streptomycin and 2.5 μg/mL Fungizone (amphotericin B). Media and all media supplements were purchased from Gibco, Australia, except the FBS was purchased from Sigma, USA.
(§4) Peripheral blood leukocytes (PBL) were obtained from venous blood of healthy volunteers by sedimentation on 2% dextran T-500 (Amersham Biosciences, USA) and subsequent centrifugations of leukocyte rich plasma.
(§5) Peripheral blood leukocytes (PBL), isolated as described above, were seeded in a 48-well plate at a concentration of 3 to 5×10^6 cell per well in culture medium consisting of RPMI 1640 medium (Institute of Immunology, Croatia) supplemented with 10% heat-inactivated fetal calf serum (FCS, Biowhittaker, USA), 100 U/ml penicillin (Gibco, Australia), 100 μg/ml streptomycin (Gibco, Australia) and 2 mM L-glutamine (Gibco, Australia), and preincubated with the test compounds for 2 h at 37° C., in an atmosphere of 5% CO2, and 90% humidity. Then, stimuli (Sigma, USA) were added to a final concentration of 2 μg/mL lipopolysaccharide (LPS), 1 μg/mL phorbol 12-myristate 13-acetate (PMA) or 120 μg/mL zymosan. Samples were incubated overnight under conditions described above. At the end of incubation, the supernatants were transferred to eppendorf tubes and centrifuged for 10 min at 1500×g. Concentrations of human TNF-α, IL-1β, IL-6 and IL-8 were determined in cell supernatants by sandwich ELISA, using capture and detection antibodies (R&D Systems, Minneapolis, Minn.) according to the manufacturer's recommendations.
(§6) Inhibition (as percentage) was calculated using the following formula: % inhibition=(1−concentration of cytokines in sample/concentration of cytokines in positive control)×100.
(§7) The positive control refers to LPS-, PMA- or zymosan-stimulated samples that were not preincubated with test compounds.

IL-8 = test: Inhibition of IL-8 production by stimulated human peripheral blood leukocytes in vitro; settings: Homo sapiens, Leukocyte, read-out: Percentage of inhibition of IL-8 production
Procedure: as §3, §4, §5, §6, §7

TNF-α = test: Inhibition of TNF-α production by stimulated human peripheral blood leukocytes in vitro; settings: Homo sapiens, Leukocyte, read-out: Percentage of inhibition of TNF-α production
Procedure: as §3, §4, §5, §6, §7

IL-1α = test: Inhibition of IL-1 production by stimulated human peripheral blood leukocytes in vitro; settings: Homo sapiens, Leukocyte, read-out: Percentage of inhibition of IL-1α production
Hep G2 = test: Cytotoxicity assay (MTT), Hep G2 cell line; settings: 24 h
Procedure: as §1, §2

Row | SMILES | Percentage of inhibition of cell growth (A549; 12.5 μM) | Percentage of inhibition of cell growth (A549; 50 μM) | inhibition at 10 µM (IL-6; LPS-stimulated PBL) | inhibition at 10 µM (IL-6; PMA-stimulated PBL) | inhibition at 10 µM (IL-6; zymosan-stimulated PBL) | inhibition at 50 µM (IL-6; LPS-stimulated PBL) | inhibition at 50 µM (IL-6; PMA-stimulated PBL) | inhibition at 50 µM (IL-6; zymosan-stimulated PBL) | inhibition at 10 µM (IL-8; LPS-stimulated PBL) | inhibition at 10 µM (IL-8; PMA-stimulated PBL) | inhibition at 10 µM (IL-8; zymosan-stimulated PBL) | inhibition at 50 µM (IL-8; LPS-stimulated PBL) | inhibition at 50 µM (IL-8; PMA-stimulated PBL) | inhibition at 50 µM (IL-8; zymosan-stimulated PBL) | inhibition at 10 µM (TNF-α; LPS-stimulated PBL) | inhibition at 10 µM (TNF-α; PMA-stimulated PBL) | inhibition at 10 µM (TNF-α; zymosan-stimulated PBL) | inhibition at 50 µM (TNF-α; LPS-stimulated PBL) | inhibition at 50 µM (TNF-α; PMA-stimulated PBL) | inhibition at 50 µM (TNF-α; zymosan-stimulated PBL) | other results
1 | CC[C@H]1OC(=O)[C@H](C)[C@@H](O[C@H]2C[C@@](C)(OC)[C@@H](OC(=O)CCN3CCN(CC4CCCN(C)C4)CC3)[C@H](C)O2)[C@H](C)[C@@H](O[C@@H]2O[C@H](C)C[C@H](N(C)C)[C@H]2O)[C@](C)(OC)C[C@@H](C)C(=O)N[C@H](C)[C@@H](O)[C@]1(C)O (stereo partly drawn) [Example 33] | 0% | 0% | 8% | 9% | 13% | 30% | 49% | 40% | 0% | 0% | 0% | 11% | 10% | 40% | 16% | 23% | 16% | 50% | 74% | 53% | inhibition at 10 µM (IL-1α; LPS-stimulated PBL): 28%; inhibition at 10 µM (IL-1α; PMA-stimulated PBL): 33%; inhibition at 10 µM (IL-1α; zymosan-stimulated PBL): 55%; inhibition at 50 µM (IL-1α; LPS-stimulated PBL): 42%; inhibition at 50 µM (IL-1α; PMA-stimulated PBL): 75%; inhibition at 50 µM (IL-1α; zymosan-stimulated PBL): 85%; Percentage of inhibition of cell growth (Hep G2; 12.5 μM): 5%; Percentage of inhibition of cell growth (Hep G2; 50 μM): 4%
2 | CC[C@H]1OC(=O)[C@H](C)[C@@H](O[C@H]2C[C@@](C)(OC)[C@@H](OC(=O)CCN3CC(C)CC(C)C3)[C@H](C)O2)[C@H](C)[C@@H](O[C@@H]2O[C@H](C)C[C@H](N(C)C)[C@H]2O)[C@](C)(OC)C[C@@H](C)C(=O)N[C@H](C)[C@@H](O)[C@]1(C)O (stereo partly drawn) [Example 37] | 1% | 0% | 20% | 41% | 21% | 78% | 57% | 100% | 14% | 17% | 27% | 0% | 10% | 0% | 15% | 28% | 17% | 76% | 45% | 96% | inhibition at 10 µM (IL-1α; LPS-stimulated PBL): 60%; inhibition at 10 µM (IL-1α; PMA-stimulated PBL): 14%; inhibition at 10 µM (IL-1α; zymosan-stimulated PBL): 49%; inhibition at 50 µM (IL-1α; LPS-stimulated PBL): 69%; inhibition at 50 µM (IL-1α; PMA-stimulated PBL): 25%; inhibition at 50 µM (IL-1α; zymosan-stimulated PBL): 98%; Percentage of inhibition of cell growth (Hep G2; 12.5 μM): 3%; Percentage of inhibition of cell growth (Hep G2; 50 μM): 19%
3 | CC[C@H]1OC(=O)[C@H](C)[C@@H](O[C@H]2C[C@@](C)(OC)[C@@H](OC(=O)CCNC3CC3)[C@H](C)O2)[C@H](C)[C@@H](O[C@@H]2O[C@H](C)C[C@H](N(C)C)[C@H]2O)[C@](C)(OC)C[C@@H](C)C(=O)N[C@H](C)[C@@H](O)[C@]1(C)O [Example 40] | 0% | 0% | 7% | 0% | 0% | 0% | 0% | 0% | 24% | 31% | 6% | 0% | 12% | 0% | 67% | 55% | 60% | 82% | 77% | 76% | inhibition at 10 µM (IL-1α; LPS-stimulated PBL): 0%; inhibition at 10 µM (IL-1α; PMA-stimulated PBL): 0%; inhibition at 10 µM (IL-1α; zymosan-stimulated PBL): 1%; inhibition at 50 µM (IL-1α; LPS-stimulated PBL): 28%; inhibition at 50 µM (IL-1α; PMA-stimulated PBL): 0%; inhibition at 50 µM (IL-1α; zymosan-stimulated PBL): 55%; Percentage of inhibition of cell growth (Hep G2; 12.5 μM): 2%; Percentage of inhibition of cell growth (Hep G2; 50 μM): 2%
